For one data set, the target named is EcPhnD-Q267C:acrylodan. As to conditions: read-out: Phosphonate affinities (Kd); cited from earlier work.
The test system of data set [1] is EcPhnD with cpGFP inserted at position 147. Format: binding, Escherichia coli.
For the next data set, the system named is EcPhnD142-cpGFP. Format: binding, Escherichia coli.
The target of data set [2] is EcPhnD90-cpGFP.L1ADΔΔ.L297R,L301R (Escherichia coli, UniProt Q1R3F7, L323R/L327R, form not given). Format: binding.
In a further data set the target is EcPhnD-Q17C:IANBD (Escherichia coli, UniProt P16682, Q43C). Format: binding.
A further data set has as its system EcPhnD87-cpGFP. Format: binding, Escherichia coli.
A further data set deals with EcPhnD-K181C:IANBD (Escherichia coli, UniProt P16682, K207C). As to the kind of experiment: biochemical. Format: binding.
The target in another data set is EcPhnD (Escherichia coli, UniProt P16682). As to conditions: read-out: affinity; cited from earlier work.
The data set “crystal structure” concerns the molecule itself. As to the kind of experiment: crystal structure.

Changes are numbered by the printed parent chain. Names and notes keep the numbering of the source.

EcPhnD-K181C:IANBD, sequence (P16682 27-338 K207C): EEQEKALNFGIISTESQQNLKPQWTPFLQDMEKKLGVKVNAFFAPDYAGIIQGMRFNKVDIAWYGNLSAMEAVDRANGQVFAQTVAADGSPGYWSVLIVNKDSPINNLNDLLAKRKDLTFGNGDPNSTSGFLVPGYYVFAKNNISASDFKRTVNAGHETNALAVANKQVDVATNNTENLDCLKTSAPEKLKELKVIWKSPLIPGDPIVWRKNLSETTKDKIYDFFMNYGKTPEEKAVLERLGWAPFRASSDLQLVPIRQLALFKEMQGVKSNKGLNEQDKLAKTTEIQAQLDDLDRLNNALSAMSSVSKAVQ
EcPhnD-Q17C:IANBD, sequence (P16682 27-338 Q43C): as the sequence (P16682 27-338 K207C) above, with Q17C, C181K counted along it

Consider `NCCP(=O)(O)O` [2AEP, 2-aminoethylphosphonate], for which the Kd is 0.005 µM at EcPhnD-Q267C:acrylodan; 37 ± 7 µM in [2] (read-out: Phosphonate affinities (Kd)); 0.011 ± 0.005 µM on EcPhnD-Q17C:IANBD; 0.54 ± 0.04 µM at EcPhnD-K181C:IANBD; roughly 0.005 µM on EcPhnD. The “affinity for 2AEP by ITC (in words)” value in data set [1] was “dramatically decreased affinity”; in the data set with EcPhnD142-cpGFP, “dramatically decreased affinity”; with EcPhnD87-cpGFP, “high affinity”. In addition, in data set [2], the ΔF/F0 increase was 1.6. Further, the ΔF/F0 at EcPhnD-Q17C:IANBD is 1.2±0.1; on EcPhnD-K181C:IANBD it was −0.72±0.01.

On to `O=C(O)CNCP(=O)(O)O` [Glyphosate (GP), Glyphosate], for which the results for the Kd on EcPhnD-Q267C:acrylodan and at EcPhnD-K181C:IANBD were 650 µM and 260 ± 20 µM, respectively.

B1: Selenomethionine-substituted EcPhnD (natural protein, E. coli, UniProt P16682 27-338, looked up)
chain: EEQEKALNFGIISTESQQNLKPQWTPFLQDMEKKLGVKVNAFFAPDYAGIIQGMRFNKVDIAWYGNLSAMEAVDRANGQVFAQTVAADGSPGYWSVLIVNKDSPINNLNDLLAKRKDLTFGNGDPNSTSGFLVPGYYVFAKNNISASDFKRTVNAGHETNALAVANKQVDVATNNTENLDKLKTSAPEKLKELKVIWKSPLIPGDPIVWRKNLSETTKDKIYDFFMNYGKTPEEKAVLERLGWAPFRASSDLQLVPIRQLALFKEMQGVKSNKGLNEQDKLAKTTEIQAQLDDLDRLNNALSAMSSVSKAVQ
modifications: selenomethionine in place of methionine
In general, stoichiometry N refers to the number of molecules, sites or subunits per partner or assembly. Consider B1, for which the “stoichiometry N” value in “crystal structure” was determined as 2.

B2: EcPhnD H157A (natural protein, E. coli, UniProt P16682 27-338, looked up)
chain: B1 chain with H157A
As for B2, the “stoichiometry N” value in “crystal structure” worked out at 2.

(Values after paper PMC5320564 (Journal of molecular biology, 2011).)
